Results reported in PubChem BioAssay AID602463 (NMMLSC, 2012).

Test system: DS-PAMPA, 20% ACN buffer, UV absorbance, 30 min
Assay: artificial-membrane permeation in acetonitrile buffer – biophysical, double-sink PAMPA, 20% ACN buffer, pH 5.0/6.2/7.4, ADME assay for GPR30 and estrogen receptor ligands, late-stage follow-up (AID 602463)
Details: stronger effect = higher value

permeability pH 7.4: 316 10^-6 cm/s | permeability pH 5.0 (measured here: PAMPA permeability at pH 5.0): 349 10^-6 cm/s | permeability pH 6.2 (measured here: PAMPA permeability at pH 6.2): 565 10^-6 cm/s
SMILES: CC(=O)c1ccc2c(c1)[C@@H]1C=CC[C@@H]1[C@H](c1cc3c(cc1Br)OCO3)N2
